#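 Tested at 5 concentrations; 48 h exposure; 96-well plates; endpoints linearly interpolated, else capped at highest concentration. The concentration for 50% growth inhibition is given as GI50.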 Activity calls are given as the source filed them. Cut-off read from the data, not from the text of the source: active = GI50 up to about 1.1 µM and inactive = higher.
# Columns and labels:
# Experiment in all cases: inhibition of tumour cell growth, NCI panel, 48 h
# SK-MEL-28 = system: SK-MEL-28
# COLO 205 = system: COLO 205
# CCRF-CEM = system: CCRF-CEM
# ACHN = system: ACHN
# HT-29 = system: HT-29
# OVCAR-8 = system: OVCAR-8
# MDA-MB-435 = system: MDA-MB-435
# SK-MEL-2 = system: SK-MEL-2
# TK-10 = system: TK-10
# MOLT-4 = system: MOLT-4
# RXF 393 = system: RXF 393
# HCT-15 = system: HCT-15
# MDA-N = system: MDA-N
# NCI/ADR-RES = system: NCI/ADR-RES
# BT-549 = system: BT-549
# NCI-H226 = system: NCI-H226
# T47D = system: T47D
# NCI-H460 = system: NCI-H460
# U-251 = system: U-251
# OVCAR-5 = system: OVCAR-5
# HL-60 = system: HL-60
# MCF7 = system: MCF7
# OVCAR-3 = system: OVCAR-3
# UO-31 = system: UO-31
# OVCAR-4 = system: OVCAR-4
# Hs-578T = system: Hs-578T
# MDA-MB-231 = system: MDA-MB-231
# HOP-62 = system: HOP-62
# K562 = system: K562
# HCT-116 = system: HCT-116
# RPMI-8226 = system: RPMI-8226
# KM12 = system: KM12
# UACC-257 = system: UACC-257
# EKVX = system: EKVX
# HCC 2998 = system: HCC 2998
# A498 = system: A498
# PC-3 = system: PC-3
# LOX IMVI = system: LOX IMVI
# SK-MEL-5 = system: SK-MEL-5
# UACC-62 = system: UACC-62
# SF-539 = system: SF-539
# A549 = system: A549
# SK-OV-3 = system: SK-OV-3
# SR = system: SR
# NCI-H23 = system: NCI-H23
# SN12C = system: SN12C
# SNB-19 = system: SNB-19
# 786-0 = system: 786-0
# SF-295 = system: SF-295
# SF-268 = system: SF-268
# IGROV-1 = system: IGROV-1
# DU-145 = system: DU-145
# CAKI-1 = system: CAKI-1
# NCI-H522 = system: NCI-H522
# SW-620 = system: SW-620
# HOP-92 = system: HOP-92
# Malme-3M = system: Malme-3M
# M14 = system: M14
# SNB-75 = system: SNB-75
smiles,measurement,setting,value
O=C1C=CC(=O)N1n1c(Cc2ccccc2)n[nH]c1=O,GI50,SK-MEL-28,> 100 µM (inactive)
same,GI50,COLO 205,> 100 µM (inactive)
same,GI50,CCRF-CEM,> 100 µM (inactive)
same,GI50,ACHN,> 100 µM (inactive)
same,GI50,HT-29,> 100 µM (inactive)
same,GI50,OVCAR-8,> 100 µM (inactive)
same,GI50,MDA-MB-435,> 100 µM (inactive)
same,GI50,SK-MEL-2,> 100 µM (inactive)
same,GI50,TK-10,> 100 µM (inactive)
same,GI50,MOLT-4,> 100 µM (inactive)
same,GI50,RXF 393,> 100 µM (inactive)
same,GI50,HCT-15,> 100 µM
same,GI50,MDA-N,> 100 µM (inactive)
same,GI50,NCI/ADR-RES,> 100 µM (inactive)
same,GI50,BT-549,> 100 µM (inactive)
same,GI50,NCI-H226,> 100 µM (inactive)
same,GI50,T47D,> 100 µM (inactive)
same,GI50,NCI-H460,> 100 µM (inactive)
same,GI50,U-251,> 100 µM (inactive)
same,GI50,OVCAR-5,> 100 µM (inactive)
same,GI50,HL-60,> 100 µM (inactive)
same,GI50,MCF7,> 100 µM (inactive)
same,GI50,OVCAR-3,> 100 µM (inactive)
same,GI50,UO-31,> 100 µM (inactive)
same,GI50,OVCAR-4,> 100 µM (inactive)
same,GI50,Hs-578T,> 100 µM (inactive)
same,GI50,MDA-MB-231,> 100 µM (inactive)
same,GI50,HOP-62,> 100 µM (inactive)
same,GI50,K562,> 100 µM (inactive)
same,GI50,HCT-116,> 100 µM (inactive)
same,GI50,RPMI-8226,> 100 µM (inactive)
same,GI50,KM12,> 100 µM (inactive)
same,GI50,UACC-257,> 100 µM (inactive)
same,GI50,EKVX,> 100 µM (inactive)
same,GI50,HCC 2998,> 100 µM (inactive)
same,GI50,A498,> 100 µM (inactive)
same,GI50,PC-3,> 100 µM (inactive)
same,GI50,LOX IMVI,> 100 µM (inactive)
same,GI50,SK-MEL-5,> 100 µM (inactive)
same,GI50,UACC-62,> 100 µM (inactive)
same,GI50,SF-539,> 100 µM (inactive)
same,GI50,A549,> 100 µM (inactive)
same,GI50,SK-OV-3,> 100 µM (inactive)
same,GI50,SR,> 100 µM (inactive)
same,GI50,NCI-H23,> 100 µM (inactive)
same,GI50,SN12C,> 100 µM (inactive)
same,GI50,SNB-19,> 100 µM (inactive)
same,GI50,786-0,> 100 µM (inactive)
same,GI50,SF-295,> 100 µM (inactive)
same,GI50,SF-268,> 100 µM (inactive)
same,GI50,IGROV-1,> 100 µM (inactive)
same,GI50,DU-145,> 100 µM (inactive)
same,GI50,CAKI-1,> 100 µM (inactive)
same,GI50,NCI-H522,> 100 µM (inactive)
same,GI50,SW-620,> 100 µM (inactive)
same,GI50,HOP-92,> 100 µM (inactive)
same,GI50,Malme-3M,> 100 µM (inactive)
COc1ccc(-c2c(CN3CCOCC3)sc3nc4ccccc4n23)cc1,GI50,SK-MEL-28,18.6 µM (inactive)
same,GI50,COLO 205,16.4 µM (inactive)
same,GI50,CCRF-CEM,0.0435 µM (active)
same,GI50,ACHN,36.6 µM (inactive)
same,GI50,HT-29,8.41 µM (inactive)
same,GI50,OVCAR-8,26.5 µM (inactive)
same,GI50,MDA-MB-435,2.94 µM (inactive)
same,GI50,SK-MEL-2,30.5 µM (inactive)
same,GI50,TK-10,58.6 µM (inactive)
same,GI50,MOLT-4,10.3 µM (inactive)
same,GI50,RXF 393,8.55 µM (inactive)
same,GI50,HCT-15,5.58 µM
same,GI50,MDA-N,2.06 µM (inactive)
same,GI50,NCI/ADR-RES,4.92 µM (inactive)
same,GI50,BT-549,> 49.4 µM (inactive)
same,GI50,NCI-H226,42.1 µM (inactive)
same,GI50,T47D,18 µM (inactive)
same,GI50,NCI-H460,8.41 µM (inactive)
same,GI50,U-251,16.1 µM (inactive)
same,GI50,OVCAR-5,32.3 µM (inactive)
same,GI50,HL-60,9.42 µM (inactive)
same,GI50,MCF7,8.32 µM (inactive)
same,GI50,OVCAR-3,9.86 µM (inactive)
same,GI50,UO-31,30.3 µM (inactive)
same,GI50,M14,7.53 µM (inactive)
same,GI50,OVCAR-4,47.6 µM (inactive)
same,GI50,Hs-578T,21.6 µM (inactive)
same,GI50,MDA-MB-231,23 µM (inactive)
same,GI50,HOP-62,31 µM (inactive)
same,GI50,K562,3.31 µM (inactive)
same,GI50,HCT-116,9.84 µM (inactive)
same,GI50,RPMI-8226,5.51 µM (inactive)
same,GI50,KM12,9.48 µM (inactive)
same,GI50,UACC-257,> 72.1 µM (inactive)
same,GI50,EKVX,15.2 µM (inactive)
same,GI50,HCC 2998,19 µM (inactive)
same,GI50,A498,23.7 µM (inactive)
same,GI50,SNB-75,14.3 µM (inactive)
same,GI50,PC-3,9.33 µM (inactive)
same,GI50,LOX IMVI,18.5 µM (inactive)
same,GI50,SK-MEL-5,6.43 µM (inactive)
same,GI50,UACC-62,16.7 µM (inactive)
same,GI50,SF-539,16.8 µM (inactive)
same,GI50,A549,22.2 µM (inactive)
same,GI50,SK-OV-3,21.6 µM (inactive)
same,GI50,SR,3.39 µM (inactive)
same,GI50,NCI-H23,27.4 µM (inactive)
same,GI50,SN12C,33.4 µM (inactive)
same,GI50,SNB-19,11.5 µM (inactive)
same,GI50,786-0,17.2 µM (inactive)
same,GI50,SF-295,9.08 µM (inactive)
same,GI50,SF-268,18.5 µM (inactive)
same,GI50,IGROV-1,8.09 µM (inactive)
same,GI50,DU-145,28.2 µM (inactive)
same,GI50,CAKI-1,28.5 µM (inactive)
same,GI50,NCI-H522,2.58 µM (inactive)
same,GI50,SW-620,12.2 µM (inactive)
same,GI50,HOP-92,23.1 µM (inactive)
same,GI50,Malme-3M,3.9 µM (inactive)
CC(C)=CCC[C@@H](C)C1=C(O)C(O)C(C)=C2N=C(c3ccccc3)C(=O)OC21 (some centres undefined),GI50,SK-MEL-28,3.07 µM (inactive)
same,GI50,COLO 205,9.38 µM (inactive)
same,GI50,CCRF-CEM,2.4 µM (inactive)
same,GI50,ACHN,2.16 µM (inactive)
same,GI50,HT-29,6.81 µM (inactive)
same,GI50,OVCAR-8,0.933 µM (active)
same,GI50,MDA-MB-435,3.18 µM (inactive)
same,GI50,SK-MEL-2,1.61 µM (inactive)
same,GI50,TK-10,1.9 µM (inactive)
same,GI50,MOLT-4,> 7.41 µM (inactive)
same,GI50,RXF 393,1.35 µM (inactive)
same,GI50,HCT-15,2.31 µM
same,GI50,MDA-N,7.57 µM (inactive)
same,GI50,NCI/ADR-RES,0.794 µM (active)
same,GI50,BT-549,2.15 µM (inactive)
same,GI50,NCI-H226,2.88 µM (inactive)
same,GI50,T47D,1.21 µM (inactive)
same,GI50,NCI-H460,1.19 µM (inactive)
same,GI50,U-251,1.57 µM (inactive)
same,GI50,OVCAR-5,18.1 µM (inactive)
same,GI50,HL-60,0.521 µM (active)
same,GI50,MCF7,1.21 µM (inactive)
same,GI50,OVCAR-3,1.24 µM (inactive)
same,GI50,UO-31,5.22 µM (inactive)
same,GI50,M14,4.71 µM (inactive)
same,GI50,OVCAR-4,4.41 µM (inactive)
same,GI50,Hs-578T,1.87 µM (inactive)
same,GI50,MDA-MB-231,2.52 µM (inactive)
same,GI50,HOP-62,3.71 µM (inactive)
same,GI50,K562,1.24 µM (inactive)
same,GI50,HCT-116,4.03 µM (inactive)
same,GI50,KM12,4.44 µM (inactive)
same,GI50,UACC-257,2.88 µM (inactive)
same,GI50,EKVX,8.85 µM (inactive)
same,GI50,HCC 2998,6.62 µM (inactive)
same,GI50,A498,2.81 µM (inactive)
same,GI50,SNB-75,3.7 µM (inactive)
same,GI50,PC-3,8.36 µM (inactive)
same,GI50,LOX IMVI,4.71 µM (inactive)
same,GI50,SK-MEL-5,1.29 µM (inactive)
same,GI50,UACC-62,1.07 µM (active)
same,GI50,SF-539,4.33 µM (inactive)
same,GI50,A549,2.65 µM (inactive)
same,GI50,SK-OV-3,1.12 µM (inactive)
same,GI50,SR,> 9.84 µM (inactive)
same,GI50,NCI-H23,0.726 µM (active)
same,GI50,SN12C,1.43 µM (inactive)
same,GI50,SNB-19,3.33 µM (inactive)
same,GI50,786-0,7.8 µM (inactive)
same,GI50,SF-295,2.42 µM (inactive)
same,GI50,SF-268,1.53 µM (inactive)
same,GI50,IGROV-1,1.22 µM (inactive)
same,GI50,DU-145,4.36 µM (inactive)
same,GI50,CAKI-1,2.39 µM (inactive)
same,GI50,NCI-H522,0.624 µM (active)
same,GI50,SW-620,3.16 µM (inactive)
same,GI50,HOP-92,0.723 µM (active)
same,GI50,Malme-3M,1.14 µM (inactive)
